Test results from PubChem BioAssay AID1745844 (Carcinogenic Potency Database (CPDB), 2022).
Where “and” joins values, the source holds several entries; their conditions need not be identical. Equal entries are not always repeated. Calls of active or inactive are those of the source. No rule for the calls is given here.

Test system: rodent lifetime carcinogenesis bioassay, tumor incidence TD50
Experiment: chronic cancer bioassays in animals – CPDB, compiled studies (AID 1745844)

Work on `ClC=C(Cl)Cl` yielded a TD50 (mouse, strain Swiss, males, inhaled, site: any site (literature study), lesion: several types, types named in the paper, dosed 78 weeks, study length 145 weeks) of 8070 mg/kg/day, a TD50 (mouse, strain Swiss, males, inhaled, site: liver, lesion: hepatoma, dosed 78 weeks, study length 145 weeks) of 3910 mg/kg/day and a TD50 (mouse, strain Swiss, males, inhaled, site: lung, lesion: one or several types, types not named, dosed 78 weeks, study length 145 weeks) of 10100 mg/kg/day. It also gave a TD50 (rat, strain ACI, females, by gavage, site: any site (literature study), lesion: several types, types named in the paper, dosed 103 weeks, study length 104 weeks) of 61700 mg/kg/day, a TD50 (rat, strain ACI, females, by gavage, site: kidney, lesion: adenocarcinoma, NOS + tubular-cell adenocarcinoma, dosed 103 weeks, study length 104 weeks) of 7800 mg/kg/day and a TD50 (rat, strain ACI, females, by gavage, site: kidney, lesion: adenocarcinoma, NOS + tubular-cell adenoma + tubular-cell adenocarcinoma, dosed 103 weeks, study length 104 weeks) of 3760 mg/kg/day. It also gave a TD50 (rat, strain ACI, males, by gavage, site: any site (literature study), lesion: several types, types named in the paper, dosed 103 weeks, study length 104 weeks) of 820 mg/kg/day, a TD50 (rat, strain ACI, males, by gavage, site: kidney, lesion: tubular-cell adenocarcinoma, dosed 103 weeks, study length 104 weeks) of 12000 mg/kg/day and a TD50 (rat, strain ACI, males, by gavage, site: liver, lesion: hepatocellular adenoma + hepatocellular carcinoma + neoplastic nodule, dosed 103 weeks, study length 104 weeks) of 9400 mg/kg/day. The TD50 (rat, strain August, females, by gavage, site: kidney, lesion: tubular-cell adenoma + tubular-cell adenocarcinoma, dosed 103 weeks, study length 104 weeks) was 2240 mg/kg/day, the TD50 (rat, strain August, males, by gavage, site: kidney, lesion: tubular-cell adenocarcinoma, dosed 103 weeks, study length 104 weeks) was 10800 mg/kg/day and the TD50 (rat, strain August, males, by gavage, site: kidney, lesion: tubular-cell adenoma + tubular-cell adenocarcinoma, dosed 103 weeks, study length 104 weeks) was 3810 mg/kg/day. The TD50 (rat, strain August, males, by gavage, site: liver, lesion: hepatocellular adenoma + hepatocellular carcinoma + neoplastic nodule, dosed 103 weeks, study length 104 weeks) was 6440 mg/kg/day, the TD50 (rat, strain August, males, by gavage, site: subcutaneous tissue, lesion: sarcoma, NOS + sarcoma, NOS, dosed 103 weeks, study length 104 weeks) was 3730 mg/kg/day and the TD50 (rat, strain Charles River CD (Sprague-Dawley), females, inhaled, site: kidney, lesion: tubular-cell adenocarcinoma, dosed 104 weeks, study length 107 weeks) was 10700 mg/kg/day. The TD50 (rat, strain Charles River CD (Sprague-Dawley), females, inhaled, site: liver, lesion: several types, types named in the paper, dosed 104 weeks, study length 107 weeks) was 12300 mg/kg/day, the TD50 (rat, strain Charles River CD (Sprague-Dawley), females, inhaled, site: mammary gland, lesion: fibroadenoma, dosed 104 weeks, study length 107 weeks) was 982 mg/kg/day and the TD50 (rat, strain Fischer 344, females, by gavage, site: any site (literature study), lesion: several types, types named in the paper, dosed 103 weeks, study length 103 weeks) was 5710 mg/kg/day (inactive). For the same compound, the TD50 (rat, strain Fischer 344, females, by gavage, site: kidney, lesion: tubular-cell adenocarcinoma, dosed 103 weeks, study length 103 weeks) was 23000 mg/kg/day, the TD50 (rat, strain Fischer 344, females, by gavage, site: liver, lesion: hepatocellular adenoma + hepatocellular carcinoma + neoplastic nodule, dosed 103 weeks, study length 103 weeks) was 9980 mg/kg/day and the TD50 (rat, strain Fischer 344, males, by gavage, site: any site (literature study), lesion: several types, types named in the paper, dosed 103 weeks, study length 103 weeks) was 2240 mg/kg/day. The TD50 (rat, strain Fischer 344, males, by gavage, site: kidney, lesion: tubular-cell adenocarcinoma, dosed 103 weeks, study length 103 weeks) was 3920 mg/kg/day, the TD50 (rat, strain Fischer 344, males, by gavage, site: kidney, lesion: tubular-cell adenoma + tubular-cell adenocarcinoma, dosed 103 weeks, study length 103 weeks) was 2780 mg/kg/day and the TD50 (rat, strain Fischer 344, males, by gavage, site: liver, lesion: hepatocellular adenoma + hepatocellular carcinoma + neoplastic nodule, dosed 103 weeks, study length 103 weeks) was 12200 mg/kg/day. For the same compound, the TD50 (rat, strain Fischer 344, males, by gavage, site: peritoneum, lesion: mesothelioma, NOS + mesothelioma, malignant, dosed 103 weeks, study length 103 weeks) was 1490 mg/kg/day, the TD50 (rat, strain Fischer 344, males, by gavage, site: peritoneum, lesion: mesothelioma, malignant, dosed 103 weeks, study length 103 weeks) was 1490 mg/kg/day and the TD50 (rat, strain Han:WIST, females, inhaled, site: any site (literature study), lesion: benign tumor, dosed 78 weeks, study length 156 weeks) was 2120 mg/kg/day (inactive). For the same compound, the carcinogen call (rat, strain Han:WIST, females, inhaled, site: any site (literature study), lesion: malignant tumor, dosed 78 weeks, study length 156 weeks) was “negative (inactive)”, the TD50 (rat, strain Han:WIST, females, inhaled, site: kidney, lesion: tubular-cell adenoma, dosed 78 weeks, study length 156 weeks) was 5500 mg/kg/day (inactive) and the carcinogen call (rat, strain Han:WIST, females, inhaled, site: liver, lesion: hepatocellular adenoma, dosed 78 weeks, study length 156 weeks) was “negative (inactive)”. For the same compound, the carcinogen call (rat, strain Han:WIST, males, inhaled, site: any site (literature study), lesion: benign tumor, dosed 78 weeks, study length 156 weeks) was “negative (inactive)”, the TD50 (rat, strain Han:WIST, males, inhaled, site: any site (literature study), lesion: malignant tumor, dosed 78 weeks, study length 156 weeks) was 351 mg/kg/day (inactive) and the TD50 (rat, strain Han:WIST, males, inhaled, site: kidney, lesion: tubular-cell adenocarcinoma, dosed 78 weeks, study length 156 weeks) was 3850 mg/kg/day (inactive). For the same compound, the TD50 (rat, strain Han:WIST, males, inhaled, site: kidney, lesion: tubular-cell adenoma, dosed 78 weeks, study length 156 weeks) was 10700 mg/kg/day (inactive), the carcinogen call (rat, strain Han:WIST, males, inhaled, site: liver, lesion: hepatocellular adenoma, dosed 78 weeks, study length 156 weeks) was “negative (inactive)” and the TD50 (rat, strain Marshall, females, by gavage, site: any site (literature study), lesion: several types, types named in the paper, dosed 103 weeks, study length 104 weeks) was 709 mg/kg/day. It also gave a TD50 (rat, strain Marshall, females, by gavage, site: kidney, lesion: tubular-cell adenocarcinoma, dosed 103 weeks, study length 104 weeks) of 4110 mg/kg/day, a TD50 (rat, strain Marshall, females, by gavage, site: kidney, lesion: tubular-cell adenoma + tubular-cell adenocarcinoma, dosed 103 weeks, study length 104 weeks) of 4370 mg/kg/day and a TD50 (rat, strain Marshall, males, by gavage, site: any site (literature study), lesion: several types, types named in the paper, dosed 103 weeks, study length 104 weeks) of 199 mg/kg/day. The TD50 (rat, strain Marshall, males, by gavage, site: kidney, lesion: tubular-cell adenocarcinoma, dosed 103 weeks, study length 104 weeks) was 8000 mg/kg/day, the TD50 (rat, strain Marshall, males, by gavage, site: kidney, lesion: tubular-cell adenoma + tubular-cell adenocarcinoma, dosed 103 weeks, study length 104 weeks) was 5710 mg/kg/day and the TD50 (rat, strain Marshall, males, by gavage, site: testis, lesion: interstitial-cell tumor + interstitial-cell tumor, malignant, dosed 103 weeks, study length 104 weeks) was 153 mg/kg/day. For the same compound, the TD50 (rat, strain Marshall, males, by gavage, site: testis, lesion: interstitial-cell tumor, malignant, dosed 103 weeks, study length 104 weeks) was 6540 mg/kg/day, the TD50 (rat, strain Osborne-Mendel, females, by gavage, site: adrenal gland, lesion: cortical adenoma, dosed 103 weeks, study length 104 weeks) was 556 mg/kg/day and the TD50 (rat, strain Osborne-Mendel, females, by gavage, site: any site (literature study), lesion: several types, types named in the paper, dosed 78 weeks, study length 110 weeks) was 5620 mg/kg/day (inactive). For the same compound, the TD50 (rat, strain Osborne-Mendel, females, by gavage, site: any site (literature study), lesion: several types, types named in the paper, dosed 103 weeks, study length 104 weeks) was 372 mg/kg/day, the TD50 (rat, strain Osborne-Mendel, females, by gavage, site: kidney, lesion: tubular-cell adenoma, dosed 103 weeks, study length 104 weeks) was 10700 mg/kg/day and the TD50 (rat, strain Osborne-Mendel, females, by gavage, site: liver, lesion: hepatocellular adenoma + hepatocellular carcinoma + neoplastic nodule, dosed 103 weeks, study length 104 weeks) was 3500 mg/kg/day. For the same compound, the TD50 (rat, strain Osborne-Mendel, males, by gavage, site: any site (literature study), lesion: several types, types named in the paper, dosed 78 weeks, study length 110 weeks) was 16000 mg/kg/day, the TD50 (rat, strain Osborne-Mendel, males, by gavage, site: any site (literature study), lesion: several types, types named in the paper, dosed 103 weeks, study length 104 weeks) was 1490 mg/kg/day and the TD50 (rat, strain Osborne-Mendel, males, by gavage, site: kidney, lesion: tubular-cell adenocarcinoma, dosed 78 weeks, study length 110 weeks) was 7220 mg/kg/day. It also gave a TD50 (rat, strain Osborne-Mendel, males, by gavage, site: kidney, lesion: tubular-cell adenoma + tubular-cell adenocarcinoma, dosed 103 weeks, study length 104 weeks) of 628 mg/kg/day, a TD50 (rat, strain Osborne-Mendel, males, by gavage, site: kidney, lesion: tubular-cell adenoma, dosed 103 weeks, study length 104 weeks) of 628 mg/kg/day and a TD50 (rat, strain Osborne-Mendel, males, by gavage, site: liver, lesion: hepatocellular adenoma + hepatocellular carcinoma + neoplastic nodule, dosed 103 weeks, study length 104 weeks) of 8950 mg/kg/day. The TD50 (rat, strain Sprague-Dawley, females, inhaled, site: any site (literature study), lesion: several types, types named in the paper, dosed 104 weeks, study length 159 weeks) was 3890 mg/kg/day, the TD50 (rat, strain Sprague-Dawley, females, inhaled, site: kidney, lesion: several types, types named in the paper, dosed 104 weeks, study length 159 weeks) was 41300 mg/kg/day and the TD50 (rat, strain Sprague-Dawley, females, inhaled, site: kidney, lesion: tubular-cell adenocarcinoma, dosed 104 weeks, study length 159 weeks) was 43200 mg/kg/day. The TD50 (rat, strain Sprague-Dawley, females, inhaled, site: liver, lesion: angiosarcoma, dosed 104 weeks, study length 159 weeks) was 8010 mg/kg/day, the TD50 (rat, strain Sprague-Dawley, females, inhaled, site: liver, lesion: neoplastic nodule, dosed 104 weeks, study length 159 weeks) was 9680 mg/kg/day and the TD50 (rat, strain Sprague-Dawley, males, by gavage, site: all sites, lesion: leukemia, dosed 52 weeks, study length 140 weeks) was 428 mg/kg/day. The TD50 (rat, strain Sprague-Dawley, males, by gavage, site: any site (literature study), lesion: malignant tumor, dosed 52 weeks, study length 140 weeks) was 818 mg/kg/day, the TD50 (rat, strain Sprague-Dawley, males, inhaled, site: all sites, lesion: leukemia, dosed 104 weeks, study length 159 weeks) was 5930 mg/kg/day and 2810 mg/kg/day and the TD50 (rat, strain Sprague-Dawley, males, inhaled, site: kidney, lesion: tubular-cell adenocarcinoma, dosed 104 weeks, study length 159 weeks) was 9490 mg/kg/day and 12400 mg/kg/day. It also gave a TD50 (rat, strain Sprague-Dawley, males, inhaled, site: kidney, lesion: tubular-cell adenoma, dosed 104 weeks, study length 159 weeks) of 29200 mg/kg/day, a TD50 (rat, strain Sprague-Dawley, males, inhaled, site: liver, lesion: neoplastic nodule, dosed 104 weeks, study length 159 weeks) of 30700 mg/kg/day and a TD50 (rat, strain Sprague-Dawley, males, inhaled, site: mammary gland, lesion: one or several types, types not named, dosed 104 weeks, study length 159 weeks) of 120 mg/kg/day. For the same compound, the TD50 (rat, strain Sprague-Dawley, males, inhaled, site: testis, lesion: Leydig-cell tumor, dosed 104 weeks, study length 159 weeks) was 557 mg/kg/day and 835 mg/kg/day.
